We go through 9 molecules from patent US20250326732A1 (Pretzel Therapeutics, Inc., priority 2021, published 2025).

Sequence of POLRMT (O00411 42-1230): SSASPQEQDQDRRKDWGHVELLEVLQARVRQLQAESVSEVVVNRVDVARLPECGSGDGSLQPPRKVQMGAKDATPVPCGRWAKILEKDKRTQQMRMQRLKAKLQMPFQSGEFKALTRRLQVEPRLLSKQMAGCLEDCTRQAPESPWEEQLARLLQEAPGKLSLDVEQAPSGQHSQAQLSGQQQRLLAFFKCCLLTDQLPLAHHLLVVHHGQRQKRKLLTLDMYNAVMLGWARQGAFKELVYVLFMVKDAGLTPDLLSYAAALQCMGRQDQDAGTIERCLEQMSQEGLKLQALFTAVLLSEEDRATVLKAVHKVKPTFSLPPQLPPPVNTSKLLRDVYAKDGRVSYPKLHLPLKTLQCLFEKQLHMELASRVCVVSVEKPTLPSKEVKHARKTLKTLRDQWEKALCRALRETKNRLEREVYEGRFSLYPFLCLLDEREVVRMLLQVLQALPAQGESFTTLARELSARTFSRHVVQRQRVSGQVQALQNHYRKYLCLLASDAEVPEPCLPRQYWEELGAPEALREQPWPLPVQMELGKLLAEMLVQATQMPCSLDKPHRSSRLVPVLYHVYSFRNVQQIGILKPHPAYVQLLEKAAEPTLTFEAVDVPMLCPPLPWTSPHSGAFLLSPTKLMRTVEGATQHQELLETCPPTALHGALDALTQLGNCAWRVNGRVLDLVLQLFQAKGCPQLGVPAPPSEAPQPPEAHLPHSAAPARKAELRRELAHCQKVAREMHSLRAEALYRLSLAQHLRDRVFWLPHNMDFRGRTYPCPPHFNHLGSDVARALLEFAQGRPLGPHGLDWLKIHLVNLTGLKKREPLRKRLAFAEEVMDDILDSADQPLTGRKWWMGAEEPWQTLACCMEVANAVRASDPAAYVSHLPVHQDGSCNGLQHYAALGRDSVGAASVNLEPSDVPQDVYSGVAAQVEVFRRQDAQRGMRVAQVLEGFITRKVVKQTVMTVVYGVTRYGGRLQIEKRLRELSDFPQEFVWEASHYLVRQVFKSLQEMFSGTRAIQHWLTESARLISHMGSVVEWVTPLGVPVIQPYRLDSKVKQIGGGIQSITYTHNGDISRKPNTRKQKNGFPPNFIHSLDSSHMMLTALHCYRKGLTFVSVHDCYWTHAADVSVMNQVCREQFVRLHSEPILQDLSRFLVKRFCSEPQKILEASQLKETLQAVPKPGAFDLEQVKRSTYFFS

This test addresses POLRMT (Homo sapiens (Human), UniProt O00411). Kind of test: homogeneous TR-FRET assay of mitochondrial transcription (inhibition of POLRMT). To be noted: 7.5 nM POLRMT, 15 nM TFB2M, 30 nM TFAM, 0.5 nM DNA template, 500 μM NTPs, 37° C. for 60 minutes. The class given is biochemical. An outline of the steps:
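POLRMT transcription from linearized pUC-LSP DNA template; RNA product detected by hybridization of ATTO647 acceptor (1 nM) and biotinylated donor (3 nM) probes plus Europium-streptavidin. Reaction stopped with EDTA/700 mM NaCl buffer, pH 7.5.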
In turn, `CNC(=O)CN(C)c1ccc2c(-c3ccccc3C)cc(=O)oc2c1` [Example 177, N-methyl-2-(methyl(2-oxo-4-(o-tolyl)-2H-chromen-7-yl)amino)acetamide] registered an IC50 of 50 nM. The value for `Cc1ccccc1-c1cc(=O)oc2cc(N(C)CC(=O)NC3CCOCC3)ccc12` [Example 139, 2-(methyl(2-oxo-4-(o-tolyl)-2H-chromen-7-yl)amino)-N-(tetrahydro-2H-pyran-4-yl)acetamide] was 100 nM; that for `Cc1ccccc1-c1cc(=O)oc2cc(N(C)CC(=O)NCC(=O)O)ccc12` [Example 223, N-methyl-N-(2-oxo-4-(o-tolyl)-2H-chromen-7-yl)glycylglycine] was 800 nM.

For `CCOC(=O)/C=C/c1ccc2c(-c3ccccc3C)cc(=O)oc2c1` [Example 53, ethyl (E)-3-(2-oxo-4-(o-tolyl)-2H-chromen-7-yl)acrylate], the IC50 was determined as 2000 nM.

In the case of `Cc1ccc2c(-c3ccccc3C)cc(=O)oc2c1` [Example 39, 7-methyl-4-(o-tolyl)-2H-chromen-2-one], the IC50 stood at 700 nM. In turn, `Cc1ccccc1-c1cc(=O)oc2cc(CCC(=O)N3CCCCC3)ccc12` [Example 49, 7-(3-oxo-3-(piperidin-1-yl)propyl)-4-(o-tolyl)-2H-chromen-2-one] yielded an IC50 of 1000 nM. The value for `CNC(=O)[C@H]1CCCN(C(=O)C(C)Cc2ccc3c(-c4ccccc4C)cc(=O)oc3c2)C1` (single isomer, unassigned) [Example 93] was 17000 nM; that for `Cc1ccccc1-c1cc(=O)oc2cc(CC(C)C(=O)N3CCC[C@H](C(N)=O)C3)ccc12` (single isomer, unassigned) [Example 89] was 100 nM; that for `Cc1ccccc1-c1cc(=O)oc2cc(N(C)Cc3nnn[nH]3)ccc12` [Example 179, 7-(((1H-tetrazol-5-yl)methyl)(methyl)amino)-4-(o-tolyl)-2H-chromen-2-one] was 100 nM.
